Experimental data taken from ChEMBL document CHEMBL5543118, “Optimization of Potent Ligands for the E3 Ligase DCAF15 and Evaluation of Their Use in Heterobifunctional Degraders” (J Med Chem, 2024).
pIC50: −log10 of the molar value. Active and inactive are the calls of the source. The rule behind the calls is not given here.

What was measured:
[1] = Binding affinity to human His6-HALO-TEV DCAF15/DDB1/DDA1 complex assessed as displacement of fluorophore tagged indisulam analogue from complex measured after 1 hr by TR-FRET assay
[2] = Lipophilicity, logD of the compound in octanol/water at pH 7.4 by shake flask method; assay type: physicochemical
[3] = target: T1, Bromodomain-containing protein 4/DDB1- and CUL4-associated factor 15 (Homo sapiens, UniProt O60885+Q66K64); assay: PROTAC activity at HiBiT tag-BRD4/DCAF15 E3 ligase (unknown origin) expressed in HEK293 cells in presence of MLN4924 incubated for 24 hrs by HiBit degradation assay; assay type: cell-based
T1 sequence (Q66K64 whole entry, looked up, other chains not shown): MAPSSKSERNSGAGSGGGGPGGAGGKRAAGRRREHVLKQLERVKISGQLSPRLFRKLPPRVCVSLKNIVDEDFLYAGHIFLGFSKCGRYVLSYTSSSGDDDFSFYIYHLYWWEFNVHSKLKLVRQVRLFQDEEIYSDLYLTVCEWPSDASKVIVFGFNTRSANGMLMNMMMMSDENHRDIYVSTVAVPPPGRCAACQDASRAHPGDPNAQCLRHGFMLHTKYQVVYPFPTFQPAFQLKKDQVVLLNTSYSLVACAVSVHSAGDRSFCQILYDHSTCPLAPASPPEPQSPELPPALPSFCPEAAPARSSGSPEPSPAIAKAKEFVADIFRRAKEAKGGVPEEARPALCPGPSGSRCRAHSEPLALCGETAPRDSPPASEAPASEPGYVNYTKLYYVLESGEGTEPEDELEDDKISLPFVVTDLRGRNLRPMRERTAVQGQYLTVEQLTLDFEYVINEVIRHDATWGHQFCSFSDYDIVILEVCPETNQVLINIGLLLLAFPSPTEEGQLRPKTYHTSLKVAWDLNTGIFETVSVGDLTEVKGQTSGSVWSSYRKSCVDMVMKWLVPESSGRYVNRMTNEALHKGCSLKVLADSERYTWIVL

[4] = target: T1, Bromodomain-containing protein 4/DDB1- and CUL4-associated factor 15; assay: PROTAC activity at HiBiT tag-BRD4/DCAF15 E3 ligase (unknown origin) expressed in HEK293 cells incubated for 6 hrs by HiBit degradation assay; assay type: cell-based
[5] = target: T1, Bromodomain-containing protein 4/DDB1- and CUL4-associated factor 15; assay: PROTAC activity at HiBiT tag-BRD4/DCAF15 E3 ligase (unknown origin) expressed in HEK293 cells assessed as maximal degradation incubated for 6 hrs by HiBit degradation assay relative to control; assay type: cell-based
[6] = Aqueous solubility of the compound in DMSO measured for 20 to 24 hrs; assay type: physicochemical; settings: time 20-24 hrs
[7] = target: T1, Bromodomain-containing protein 4/DDB1- and CUL4-associated factor 15; assay: PROTAC activity at BRD4/DCAF15 E3 ligase (unknown origin) incubated for 16 hrs by immunoblot analysis; assay type: protein assay
[8] = target: T1, Bromodomain-containing protein 4/DDB1- and CUL4-associated factor 15; assay: PROTAC activity at BRD4/DCAF15 E3 ligase (unknown origin) assessed as maximal degradation incubated for 16 hrs by immunoblot analysis relative to control; assay type: protein assay
[9] = target: DDB1- and CUL4-associated factor 15/RNA-binding protein 39 (Homo sapiens) (UniProt Q14498+Q66K64); assay: PROTAC activity at RBM39/DCAF15 E3 ligase (unknown origin) assessed as degradation at 0.1 to 10 uM by Western blotting analysis; assay type: cell-based; settings: HEK293, dose 0.1-10 µM
Sequence of DDB1- and CUL4-associated factor 15/RNA-binding protein 39 (Homo sapiens) (Q14498 whole entry, looked up): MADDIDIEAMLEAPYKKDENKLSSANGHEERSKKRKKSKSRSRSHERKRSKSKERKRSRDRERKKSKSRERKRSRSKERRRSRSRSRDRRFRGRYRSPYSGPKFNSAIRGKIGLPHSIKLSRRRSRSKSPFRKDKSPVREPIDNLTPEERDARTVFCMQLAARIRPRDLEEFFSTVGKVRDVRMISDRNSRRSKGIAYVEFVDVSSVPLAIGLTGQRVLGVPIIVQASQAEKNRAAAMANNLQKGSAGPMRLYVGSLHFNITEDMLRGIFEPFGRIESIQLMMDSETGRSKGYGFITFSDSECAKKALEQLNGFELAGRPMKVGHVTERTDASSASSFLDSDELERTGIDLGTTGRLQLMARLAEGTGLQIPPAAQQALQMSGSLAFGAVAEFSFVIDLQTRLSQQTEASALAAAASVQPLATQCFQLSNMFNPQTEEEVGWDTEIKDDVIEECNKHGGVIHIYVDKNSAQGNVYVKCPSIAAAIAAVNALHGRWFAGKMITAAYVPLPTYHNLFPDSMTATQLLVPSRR
Sequence of DDB1- and CUL4-associated factor 15/RNA-binding protein 39 (Homo sapiens) (Q66K64 whole entry, looked up): as the sequence (Q66K64 whole entry, looked up, other chains not shown) above

[10] = target: T1, Bromodomain-containing protein 4/DDB1- and CUL4-associated factor 15; assay: PROTAC activity at HiBiT tag-BRD4/DCAF15 E3 ligase (unknown origin) expressed in HEK293 cells in presence of (+)-JQ1 incubated for 24 hrs by HiBit degradation assay; assay type: cell-based
[11] = tested on: HEK293; assay: Cytotoxicity against human HEK293 cells expressing HiBiT tag-BRD4 assessed as cell viability at 10 uM measured after 24 hrs; assay type: toxicity, cell-based; settings: hek293, 24 h

pIC50 [1]	logD [2]	SMILES	also measured
5.84	3.8	N#Cc1cccc(S(=O)(=O)Nc2cc(Cl)cc3c(Cl)c[nH]c23)c1	–
6.66	2.7	Cc1cc(S(=O)(=O)Nc2ccc(Cl)c3c(Cl)c[nH]c23)oc1C(=O)N(C)C	–
5.63	2.6	Cc1ccc(NS(=O)(=O)c2cccc(C#N)c2)c2[nH]cc(C#N)c12 [E-7820]	–
5.93	3.7	Cc1coc(S(=O)(=O)Nc2ccc(Cl)c3c(Cl)c[nH]c23)c1	–
7.13	> 4	Cc1cc(S(=O)(=O)Nc2ccc(Cl)c3c(Cl)c[nH]c23)oc1C(=O)N1CCC(C(=O)N2CCN(CC3CCN(C(=O)C[C@@H]4N=C(c5ccc(Cl)cc5)c5c(sc(C)c5C)-n5c(C)nnc54)CC3)CC2)CC1	Activity [3]: inactive; DC50 [4]: 453 nM; Emax [5]: 69%; solubility [6]: < 0.16 µM
6.55	2	CNC(=O)[C@@H]1CCN(C(=O)c2oc(S(=O)(=O)Nc3ccc(Cl)c4c(Cl)c[nH]c34)cc2C)C1	–
6.30	2.8	COCCNC(=O)c1oc(S(=O)(=O)Nc2ccc(Cl)c3c(Cl)c[nH]c23)cc1C	–
6.01	1.9	CNC(=O)C1CN(C(=O)c2oc(S(=O)(=O)Nc3ccc(Cl)c4c(Cl)c[nH]c34)cc2C)C1	–
6.16	2	CNC(=O)[C@H]1CCN(C(=O)c2oc(S(=O)(=O)Nc3ccc(Cl)c4c(Cl)c[nH]c34)cc2C)C1	–
6.07	2.2	CN(C)C(=O)c1nc(S(=O)(=O)Nc2ccc(Cl)c3c(Cl)c[nH]c23)cn1C	–
< 4.00	2.2	COc1ccc(NS(=O)(=O)c2cccc(C#N)c2)c2[nH]cc(C#N)c12	–
–	–	Cc1sc2c(c1C)C(c1ccc(Cl)cc1)=N[C@@H](CC(=O)NCCOCCOCCNC(=O)c1cccc(S(=O)(=O)Nc3ccc(C)c4c(C#N)c[nH]c34)c1)c1nnc(C)n1-2	DC50 [7]: 10800 nM; Emax [8]: 98%
5.36	1.7	N#Cc1cccc(S(=O)(=O)Nc2ccc(C#N)c3c(Cl)c[nH]c23)c1	–
5.15	2	N#Cc1cccc(S(=O)(=O)Nc2ccc(F)c3c(C#N)c[nH]c23)c1	–
6.21	3	Cc1sc(S(=O)(=O)Nc2ccc(Cl)c3c(Cl)c[nH]c23)cc1C(=O)N(C)C	–
5.81	2.4	N#Cc1cccc(S(=O)(=O)Nc2ccc(Cl)c3c(C#N)c[nH]c23)c1	–
6.30	1.5	Cc1sc(S(=O)(=O)Nc2ccc(Cl)c3c(Cl)c[nH]c23)nc1C(=O)N(C)C	–
7.34	3.6	Cc1cc(S(=O)(=O)Nc2ccc(Cl)c3c(Cl)c[nH]c23)oc1C(=O)N1CCCCC1	–
6.40	2.3	CN(C)C(=O)c1oc(S(=O)(=O)Nc2ccc(Cl)c3c(Cl)c[nH]c23)cc1Cl	–
6.65	3.1	Cc1cc(S(=O)(=O)Nc2ccc(Cl)c3c(Cl)c[nH]c23)sc1C(=O)N(C)C	–
6.24	2.9	CNC(=O)c1oc(S(=O)(=O)Nc2ccc(Cl)c3c(Cl)c[nH]c23)cc1C	–
6.17	2.3	CN(C)C(=O)c1ccc(S(=O)(=O)Nc2ccc(Cl)c3c(Cl)c[nH]c23)o1	–
6.15	4	N#Cc1cccc(S(=O)(=O)Nc2ccc(Cl)c3c(Cl)c[nH]c23)c1	–
7.28	2.1	CNC(=O)C1CCN(C(=O)c2oc(S(=O)(=O)Nc3ccc(Cl)c4c(Cl)c[nH]c34)cc2C)CC1	Activity [9]: inactive; Activity [10]: Active; Activity [11]: Toxic
6.41	2.2	Cc1cc(S(=O)(=O)Nc2ccc(Cl)c3c(Cl)c[nH]c23)oc1C(=O)N1CCN(C)CC1	–
